Assay results published in ChEMBL document CHEMBL1122949, “Pepstatin-derived inhibitors of aspartic proteinases. A close look at an apparent transition-state analogue inhibitor” (J Med Chem, 1985).
Numbered stars: 1 amine (or outer) side, 2 acyl side, 3 side chain; on linkers, the order of the positions; unused ones are H or OH. Square brackets hold non-standard residues; d marks the D form. Peptide text beside a SMILES is read from it. * marks the point of attachment. ξ: configuration not given here. X1 = CC[C@H](C)[C@H](NC(=O)[C@H](CC(C)C)NC[C@H](CC(C)C)N*)C(=O)N[C@@H](Cc1c[nH]cn1)C(=O)O; LeuΨ(ξCHOHCH2)Val = CC(C)C[C@H](N[*:1])C(O)C[C@H](C(=O)[*:2])C(C)C; Sta(3ξ) = CC(C)C[C@H](N[*:1])C(O)CC(=O)[*:2]; Isovaleryl = CC(C)CC(=O)*; Boc = CC(C)(C)OC(=O)*

Key:
Pepsin A = Pepsin A (Sus scrofa, UniProt P00791); assay: Inhibition of porcine pepsin
Chain of Pepsin A (P00791 whole entry): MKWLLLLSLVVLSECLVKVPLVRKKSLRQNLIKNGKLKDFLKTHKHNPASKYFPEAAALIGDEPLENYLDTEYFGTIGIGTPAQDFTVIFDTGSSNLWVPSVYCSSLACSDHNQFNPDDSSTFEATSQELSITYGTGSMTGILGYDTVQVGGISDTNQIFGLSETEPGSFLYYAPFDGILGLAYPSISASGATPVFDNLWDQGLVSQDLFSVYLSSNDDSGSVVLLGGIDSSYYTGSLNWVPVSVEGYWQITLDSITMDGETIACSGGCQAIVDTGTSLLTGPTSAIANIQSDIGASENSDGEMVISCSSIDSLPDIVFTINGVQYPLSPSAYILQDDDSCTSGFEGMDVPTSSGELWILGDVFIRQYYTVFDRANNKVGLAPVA

Renin = biological target: T1, Renin (Homo sapiens, UniProt P00797); assay: Compound was evaluated for the ability to inhibit human plasma renin.; type: cell-free
T1 sequence (P00797 whole entry): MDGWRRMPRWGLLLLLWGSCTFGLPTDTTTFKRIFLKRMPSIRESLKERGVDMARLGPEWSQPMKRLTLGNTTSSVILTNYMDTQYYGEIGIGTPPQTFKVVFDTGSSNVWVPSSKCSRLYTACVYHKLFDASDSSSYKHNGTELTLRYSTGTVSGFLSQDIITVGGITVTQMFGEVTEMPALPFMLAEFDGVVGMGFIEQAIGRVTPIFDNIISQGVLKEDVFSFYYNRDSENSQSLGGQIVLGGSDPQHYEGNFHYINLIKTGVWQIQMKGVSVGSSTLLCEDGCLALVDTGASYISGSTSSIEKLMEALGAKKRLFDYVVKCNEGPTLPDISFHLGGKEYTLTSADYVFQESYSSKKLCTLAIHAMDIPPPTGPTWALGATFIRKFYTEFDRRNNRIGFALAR

[1] = Compound was evaluated for the ability to inhibit penicillopepsin.

Row | SMILES | Ki (Pepsin A) [nM] | IC50 (Renin) [nM] | Ki [1] [nM]
1 | CC(C)CCC(=O)NC(=O)[C@H](C)NC(=O)CC(O)[C@@H](Cc1ccccc1)NC(=O)[C@H](NC(=O)CC(C)C)C(C)C (some centres not stated) | 0.9 | – | –
2 | CC[C@H](C)[C@H](NC(=O)[C@H](CC(C)C)NC[C@H](CC(C)C)NC(=O)C(Cc1c[nH]cn1)NC(=O)[C@H](Cc1ccccc1)NC(=O)[C@@H]1CCCN1C(=O)C(N)Cc1c[nH]cn1)C(=O)NC(Cc1c[nH]cn1)C(=O)O (stereo in doubt) | – | 1000 | –
3 | CC[C@H](C)[C@H](NC(=O)[C@H](Cc1ccccc1)NC(=O)[C@H](Cc1ccccc1)NC(=O)[C@H](Cc1c[nH]cn1)NC(=O)[C@H](Cc1ccccc1)NC(=O)[C@@H]1CCCN1C(=O)[C@H](Cc1c[nH]cn1)NC(=O)[C@@H]1CCCN1)C(=O)N[C@@H](Cc1c[nH]cn1)C(=O)O | – | 7000 | –
4 | CC(C)CNC(=O)[C@H](C)NC(=O)[C@@H](C)CC(O)[C@@H](CC(C)C)NC(=O)[C@H](NC(=O)CC(C)C)C(C)C (stereo in doubt; 16b(4R)) | 700 | – | –
5 | CC(C)CCC(=O)NC(=O)[C@H](C)NC(=O)CC(O)[C@@H](CC(C)C)N(C)C(=O)[C@H](NC(=O)[C@@H](NC(=O)CC(C)C)C(C)C)C(C)C (stereo in doubt; 13a(3s)) | 1200 | – | > 5000
6 | CC[C@H](C)[C@H](NC(=O)[C@@H](CC(O)[C@H](CC(C)C)NC(=O)[C@H](Cc1cnc[nH]1)NC(=O)[C@H](Cc1ccccc1)NC(=O)[C@@H]1CCCN1C(=O)[C@H](Cc1cnc[nH]1)NC(=O)OC(C)(C)C)C(C)C)C(=O)N[C@@H](Cc1cnc[nH]1)C(=O)O (some centres not stated) (Boc-HPFH[LeuΨ(ξCHOHCH2)Val]IH-OH) | – | 0.7 | –
7 | CC(C)CCC(=O)NC(=O)CNC(=O)CC(O)[C@@H](CC(C)C)NC(=O)[C@H](NC(=O)CC(C)C)C(C)C (some centres not stated) | 56 | – | –
8 | CC(C)CC(=O)N[C@H](C(=O)N[C@H](C(=O)N[C@@H](CC(C)C)[C@@H](O)CC(=O)N[C@@H](C)C(=O)N[C@@H](CC(C)C)[C@@H](O)CC(=O)O)C(C)C)C(C)C [PEPSTATIN] | 0.056 | – | 0.15
9 | CC[C@H](C)[C@H](NC(=O)CC(O)[C@H](CC(C)C)NC(=O)[C@H](Cc1c[nH]cn1)NC(=O)[C@H](Cc1ccccc1)NC(=O)[C@@H]1CCCN1C(=O)[C@H](Cc1c[nH]cn1)NC(=O)CC(C)C)C(=O)N[C@@H](Cc1ccccc1)C(N)=O (some centres not stated) (Isovaleryl-HPFH[Sta(3ξ)]IF-NH2) | – | 1.9 | –
10 | CCOC(=O)CC(O)[C@H](CC(C)C)NC(=O)[C@@H](NC(=O)[C@@H](NC(=O)CC(C)C)C(C)C)C(C)C (some centres not stated) | 10 | – | 47
11 | CC[C@H](C)[C@H](NC(=O)[C@H](CC(C)C)NC[C@H](CC(C)C)NC(=O)[C@H](Cc1c[nH]cn1)NC(=O)[C@H](Cc1ccccc1)NC(=O)[C@@H]1CCCN1C(=O)[C@H](Cc1c[nH]cn1)NC(=O)[C@@H]1CCCN1)C(=O)N[C@@H](Cc1c[nH]cn1)C(=O)O (H-PHPFH-X1) | – | 10 | –
12 | CC[C@H](C)[C@H](NC(=O)CC(O)[C@H](CC(C)C)NC(=O)[C@H](Cc1c[nH]cn1)NC(=O)[C@H](Cc1ccccc1)NC(=O)[C@@H]1CCCN1C(=O)[C@H](Cc1c[nH]cn1)NC(=O)CC(C)C)C(=O)N[C@@H](Cc1ccccc1)C(=O)OC (some centres not stated) (Isovaleryl-HPFH[Sta(3ξ)]IF-OMe) | – | 0.6 | –
13 | CC(C)CCC(=O)NC(=O)[C@@H](C)NC(=O)CC(O)[C@H](CC(C)C)NC(=O)[C@@H](NC(=O)CC(C)C)C(C)C (some centres not stated) | 3 | – | 7600
14 | CC(C)CCC(=O)NC(=O)[C@H](C)NC(=O)CCC(O)[C@@H](CC(C)C)NC(=O)[C@H](NC(=O)CC(C)C)C(C)C (some centres not stated) | 50 | – | –
15 | CC(C)CCC(=O)NC(=O)C(C)NC(=O)CC(O)[C@H](CC(C)C)NC(=O)[C@@H](NC(=O)[C@@H](NC(=O)CC(C)C)C(C)C)C(C)C (some centres not stated) | 2000 | – | –
16 | CC(C)CNC(=O)[C@H](C)NC(=O)[C@@H](C)CC(O)[C@@H](CC(C)C)NC(=O)[C@H](NC(=O)CC(C)C)C(C)C (stereo in doubt; 16a(4S)) | 3 | – | –
17 | CC(C)CCC(=O)NC(=O)[C@H](C)NC(=O)CC(=O)[C@H](CC(C)C)NC(=O)[C@@H](NC(=O)[C@@H](NC(=O)CC(C)C)C(C)C)C(C)C | 10 | – | 85
18 | CC(C)CNC(=O)CNC(=O)[C@@H](C)CC(O)[C@@H](CC(C)C)NC(=O)[C@H](NC(=O)CC(C)C)C(C)C (some centres not stated) | 53 | – | –
19 | CC(C)CCC(=O)NC(=O)[C@@H](C)CC(O)[C@@H](CC(C)C)NC(=O)[C@H](NC(=O)CC(C)C)C(C)C (some centres not stated) | 27 | – | –
20 | CC(C)CNC(=O)[C@@H](C)NC(=O)[C@@H](C)CC(=O)[C@H](CC(C)C)NC(=O)[C@@H](NC(=O)CC(C)C)C(C)C | 110 | – | –
21 | CC(C)CCC(=O)NC(=O)[C@@H](C)NC(=O)CC(=O)[C@H](CC(C)C)NC(=O)[C@@H](NC(=O)CC(C)C)C(C)C | 56 | – | –
22 | CC(C)CC(=O)N[C@H](C(=O)N[C@H](C(=O)N[C@H](CCC(=O)NC(C)C(=O)N[C@H](CCC(=O)O)CC(C)C)CC(C)C)C(C)C)C(C)C (some centres not stated) | 210 | – | –
